For 22 compounds, CC50 and EC50 results are on record in US9814739B2, “2′-ethynyl nucleoside derivatives for treatment of viral infections” (priority 2012, dated 2017).

Read-outs that look alike come from different tables or passages of the source.

Series [1] concerns Replicon cells, expressing the GT1b HCV luciferase replicon.
For series [2], the system named is GT1b HCV luciferase replicon. As to the kind of experiment: HCV replicon antiviral EC50 assay. Type of series: cell-based, Hepatitis C virus.
Series [3] is described as follows: 4 day CCK-8 cytotoxicity assay using THP-1 cells. The class given is cell-based. Conditions: human, read-out: Dengue CC50 (THP-1). On the procedure: 3) Protocols for Automated 4 Days CCK8 (Dojindo) Cytotoxicity Assay in HepG2 and THP-1 Cells • 1. 25 μL of HepG2 suspension containing 1.6×10^4 cells/ml (400 cells/well) or 25 μL of THP-1 suspension containing 8×10^4 cells/ml (2000 cells/well) was dispensed into a clear 384-well plate by GNF dispenser 2B vertical-head. • 2. The plate was pre-incubated for 24 h in the GNF incubator (humidified, 37° C., 5% CO2). • 3. Serial-diluted compound were directly transferred into the culture media in the plate (200× dilution). • 4. Plates were incubated for 96 hours in the GNF incubator. • 5. CCK-8 was thawed on the bench-top, and was pre-diluted with media (2.5× dilutions). • 6. 35 μL of 2.5× diluted CCK8 was added to each well of the plate by GNF dispenser 1C angled-head. • 7. The plates were incubated for 3 hours in the incubator. • 8. The absorbance at 450 nm was measured by Envision. Dengue Assay on Cryopreserved PBMC Cells
THP-1 cells grown in suspension were counted and diluted to 8×10^4 cells/ml in RPMI-1640 media supplemented with 10% fetal bovine serum and 1% penicillin/streptomycin. 25 ul of the THP-1 containing media consisting of 2000 cells were dispensed in 384-well tissue culture plate and pre-incubated at room temperature for 30 minutes, followed by 37° C., 5% CO2 overnight in the humidified incubator. On the next day, serial-diluted compound plates were prepared and 125 nl of compounds at various concentrations were then dispensed into the tissue culture well (200× dilution). The plates were then transferred to 37° C., 5% CO2 humidified incubator for additional 96 hours. Cytotoxicity was measured by CCK-8 assay. Briefly, CCK-8 was thawed on bench top and diluted 2.5× with the growth media. 35 ul of the pre-diluted CCK-8 was then introduced into each well and the plates were then further incubated in 37° C., 5% CO2 humidified incubator for 3 hours. The absorbance was read by Envision at 450 nm. Dose response curves were plotted from the mean absorbance (n=2) versus the log of the concentration of test compounds. The EC50 is calculated by nonlinear regression analysis. A positive control (puromycin) was used to ensure the quality of the data.

The test system of the next series is Dengue virus. Description: Dengue assay on cryopreserved PBMC cells (plaque reduction readout on BHK cells). The class given is cell-based. Conditions: Dengue virus, PBMC, 48 h, human PBMC cells. The method, then: Cryopreserved human PBMC cells were purchased from approved vendors. It was then thawed according to manufacturer's instructions and suspended in RPMI medium supplemented with 1% penicillin/streptomycin solution and 10% Fetal Calf serum. The cells were then counted and viability checked (viability should be at least 70%). After centrifuging and removing the media, the cells were diluted to 1×10^7 cells/mL in RPMI medium supplemented with 1% penicillin/streptomycin. 50 μl of the cells were then dispensed into 96-well tissue culture plate constituting 5×10^5 cells/well. Next, virus with humanized 4G2 mixture was prepared for infection. Briefly, virus (2×10^7 pfu/ml) was mixed with humanized 4G2 antibody with the final antibody concentration of 0.38 μg/ml and incubated for 30 minutes at 4° C. to assist virus/antibody complex formation. The virus-antibody complex was then added to the PBMC at multiplicity of infection (M.O.I) of 0.5. The resulting media was then and further incubated the plates at 37° C. in the humidified incubator for infection to take place. Serial diluted compounds were then added and finally media was added such that the final media volume was 200 μl with 2% Fetal Calf Serum. The plates were then incubated at 37° C., 5% CO2 for another 48 hours. The extent of the infection and compound inhibition was measured by plaque reduction assay using BHK cells. Briefly, BHK cells grown in 24-well tissue culture were subjected to supernatants derived from infection containing serial diluted compounds. After additional 4 days, the monolayer of BHK cells were fixed, stained with crystal violet stain and plaques counted. Dose response curves were plotted from the mean absorbance (n=3) versus the log of the concentration of test compounds. The EC50 is calculated by nonlinear regression analysis. A positive control (7-deaza-2′-C-acetylene-adenosine) was used to ensure the quality of the data.

The nature of a further series: in vitro. The following applies: HCV GT1b CC50 (uM).
The mark [4] stands for this setting: Hepatitis C virus, GT1B, 72 h, read-out: HCV GT1b EC50 (uM).

`C#C[C@@]1(O)[C@H](O)[C@@H](COP(=O)(N[C@@H](C)C(=O)OCC)Oc2ccccc2)O[C@H]1n1ccc(=O)[nH]c1=O` (single isomer, unassigned) [1.36 (peak 1)]: the CC50 in series [1] is more than 25 µM. For the same compound, the EC50 in series [2] (read-out: HCV GT1b EC50) was found to be 0.103 µM.
Taken in the same sequence, the figures for `C#C[C@@]1(O)[C@H](O)[C@@H](COP(=O)(N[C@@H](C)C(=O)OC(CCC)CCC)Oc2ccccc2)O[C@H]1n1ccc(=O)[nH]c1=O` (single isomer, unassigned) [1.34 (peak 1)] were more than 25 µM and 0.301 µM.
For `C#C[C@@]1(O)[C@H](O)[C@@H](COP(=O)(N[C@@H](CCC)C(=O)OC(C)C)Oc2ccccc2)O[C@H]1n1ccc(=O)[nH]c1=O` (single isomer, unassigned) [1.24 (peak 1)] the same measures were more than 25 µM and 0.89 µM.
Compound `C#C[C@@]1(O)[C@H](O)[C@@H](COP(=O)(NC(C)(C)C(=O)OC(C)C)Oc2ccccc2)O[C@H]1n1ccc(=O)[nH]c1=O` (single isomer, unassigned) [1.39 (peak 1)] gave a CC50 in series [1] of more than 25 µM. Moreover, the EC50 in series [2] (read-out: HCV GT1b EC50) was determined as 1.5 µM.
For `C#C[C@@]1(O)[C@H](O)[C@@H](COP(=O)(N[C@@H](C)C(=O)O[C@H](C)CC)Oc2ccccc2)O[C@H]1n1ccc(=O)[nH]c1=O` (single isomer, unassigned) [1.15 (peak 1)] the same measures were more than 25 µM and 0.172 µM.
Taken in the same sequence, the figures for `C#C[C@@]1(O)[C@H](O)[C@@H](COP(=O)(NCCOC(=O)c2ccccc2)Oc2ccccc2)O[C@H]1n1ccc(=O)[nH]c1=O` (single isomer, unassigned) [1.18 (peak 1)] were more than 25 µM and 0.08 µM.
On to `C#C[C@@]1(O)[C@H](O)[C@@H](COP(=O)(N[C@@H](C)C(=O)OC2CCCCC2)Oc2ccc(Cl)cc2)O[C@H]1n1ccc(=O)[nH]c1=O` (stereo partly drawn) [Example 1.7, (2S)-cyclohexyl 2-(((4-chlorophenoxy)(((2R,3R,4R,5R)-5-(2,4-dioxo-3,4-dihydropyrimidin-1(2H)-yl)-4-ethynyl-3,4-dihydroxytetrahydrofuran-2-yl)methoxy)phosphoryl)amino)propanoate], for which the CC50 at 96 h in series [3] was 13 µM. In addition, the concentration giving a half-maximal response (EC50) in series [2] (setting [4]) came out at 0.087 µM; in the series with Dengue virus, 0.17 µM. The same compound had a CC50 in the series “in vitro” of more than 25 µM.
`C#C[C@@]1(O)[C@H](O)[C@@H](COP(=O)(N[C@@H](CC)C(=O)OC(C)C)Oc2ccccc2)O[C@H]1n1ccc(=O)[nH]c1=O` (single isomer, unassigned) [1.38 (peak 1)]: the CC50 in series [1] was more than 25 µM. Besides, the EC50 in series [2] (read-out: HCV GT1b EC50) turned out to be 0.37 µM.
For `C#C[C@@]1(O)[C@H](O)[C@@H](COP(=O)(N[C@@H](CC(C)C)C(=O)OC(C)C)Oc2ccccc2)O[C@H]1n1ccc(=O)[nH]c1=O` (single isomer, unassigned) [1.23 (peak 1)] the same measures were more than 25 µM and 2.72 µM.
In turn, `C#C[C@@]1(O)[C@H](O)[C@@H](COP(=O)(N[C@@H](Cc2ccccc2)C(=O)OC(C)C)Oc2ccccc2)O[C@H]1n1ccc(=O)[nH]c1=O` (single isomer, unassigned) [1.10 (peak 1)] registered a CC50 in series [1] of more than 25 µM. In addition, the EC50 in series [2] (read-out: HCV GT1b EC50) is 2.87 µM.
Taken in the same sequence, the figures for `C#C[C@@]1(O)[C@H](O)[C@@H](COP(=O)(N[C@@H](C)C(=O)OC(C)C)Oc2ccccc2)O[C@H]1n1ccc(OC)nc1=O` (single isomer, unassigned) [1.28 (peak 1)] were more than 25 µM and more than 100 µM.
Taken in the same sequence, the figures for `C#C[C@@]1(O)[C@H](O)[C@@H](COP(=O)(N[C@@H](C)C(=O)OCC(C)(C)C)Oc2ccccc2)O[C@H]1n1ccc(=O)[nH]c1=O` (single isomer, unassigned) [1.33 (peak 1)] were 19.7 µM and 0.081 µM.
On to `C#C[C@@]1(O)[C@H](O)[C@@H](COP(=O)(N[C@@H](C)C(=O)OC(CC)CC)Oc2ccc(Cl)cc2)O[C@H]1n1ccc(=O)[nH]c1=O` (stereo partly drawn) [Example 1.4, (2S)-pentan-3-yl 2-(((4-chlorophenoxy)(((2R,3R,4R,5R)-5-(2,4-dioxo-3,4-dihydropyrimidin-1(2H)-yl)-4-ethynyl-3,4-dihydroxytetrahydrofuran-2-yl)methoxy)phosphoryl)amino)propanoate], for which the CC50 at 96 h in series [3] was more than 50 µM. In addition, the results for the EC50 (in series [2] (setting [4]); in the series with Dengue virus) were 0.087 µM and 0.06 µM, respectively. Further, the CC50 in “in vitro” was more than 25 µM.
In the case of `C#C[C@@]1(O)[C@H](O)[C@@H](COP(=O)(N[C@@H](C)C(=O)O[C@@H](C)CC)Oc2ccccc2)O[C@H]1n1ccc(=O)[nH]c1=O` (single isomer, unassigned) [1.13 (peak 1)], the CC50 in series [1] was more than 25 µM. Moreover, in series [2] (read-out: HCV GT1b EC50), the EC50 is 0.302 µM.
Regarding `C#C[C@@]1(O)[C@H](O)[C@@H](COP(=O)(N[C@@H](C)C(=O)O[C@H](C)CC)Oc2ccc(Cl)cc2)O[C@H]1n1ccc(=O)[nH]c1=O` (stereo partly drawn) [Example 1.3, (2S)-(R)-sec-butyl 2-(((4-chlorophenoxy)(((2R,3R,4R,5R)-5-(2,4-dioxo-3,4-dihydropyrimidin-1(2H)-yl)-4-ethynyl-3,4-dihydroxytetrahydrofuran-2-yl)methoxy)phosphoryl)amino)propanoate], the CC50 at 96 h in series [3] was 16 µM. Besides, the EC50 in series [2] (setting [4]) came to 0.095 µM; with Dengue virus it was 0.06 µM. Besides, in “in vitro”, the CC50 is more than 25 µM.
Consider `C#C[C@@]1(O)[C@H](O)[C@@H](COP(=O)(NC(C)(C)C(=O)OCC)Oc2ccccc2)O[C@H]1n1ccc(=O)[nH]c1=O` (single isomer, unassigned) [1.37 (peak 1)], for which the CC50 in series [1] was more than 25 µM. The EC50 in series [2] (read-out: HCV GT1b EC50) worked out at 0.367 µM.
For `C#C[C@@]1(O)[C@H](O)[C@@H](COP(=O)(N[C@@H](C)C(=O)OC2CCC2)Oc2ccccc2)O[C@H]1n1ccc(=O)[nH]c1=O` (single isomer, unassigned) [1.11 (peak 1)] the same measures were more than 25 µM and 0.1 µM.
Taken in the same sequence, the figures for `C#C[C@@]1(O)[C@H](O)[C@@H](COP(=O)(N[C@@H](C)C(=O)OC2CCOCC2)Oc2ccccc2)O[C@H]1n1ccc(=O)[nH]c1=O` (single isomer, unassigned) [1.14 (peak 1)] were more than 25 µM and 1.15 µM.
For `C#C[C@@]1(O)[C@H](O)[C@@H](COP(=O)(N[C@@H](C)C(=O)OC(CC)CC)Oc2ccccc2)O[C@H]1n1ccc(=O)[nH]c1=O` (single isomer, unassigned) [1.16 (peak 1)] the same measures were more than 25 µM and 0.34 µM.
Compound `C#C[C@@]1(O)[C@H](O)[C@@H](COP(=O)(N[C@@H](C)C(=O)OCOC(C)=O)Oc2ccccc2)O[C@H]1n1ccc(=O)[nH]c1=O` (single isomer, unassigned) [1.17 (peak 1)] showed a CC50 in series [1] of more than 25 µM. The EC50 in series [2] (read-out: HCV GT1b EC50) worked out at 6.8 µM.
`C#C[C@@]1(O)[C@H](O)[C@@H](COP(=O)(N[C@@H](C)C(=O)OC(C)C)Oc2ccccc2)O[C@H]1n1ccc(N)nc1=O` (single isomer, unassigned) [1.30 (peak 1)] showed a CC50 in series [1] of more than 25 µM. Besides, the concentration for a half-maximal effect (EC50) in series [2] (read-out: HCV GT1b EC50) amounted to 44.9 µM.
Compound `C#C[C@@]1(O)[C@H](O)[C@@H](COP(=O)(N[C@@H](C)C(=O)OCC(C)(C)OC)Oc2ccccc2)O[C@H]1n1ccc(=O)[nH]c1=O` (single isomer, unassigned) [1.32 (peak 1)] displayed a CC50 in series [1] of more than 25 µM. Also, the concentration giving a half-maximal response (EC50) in series [2] (read-out: HCV GT1b EC50) turned out to be 0.53 µM.
